Test results published in US10246429B2, “Vinyl fluoride cyclopropyl fused thiazin-2-amine compounds as beta-secretase inhibitors and methods of use” (AMGEN INC., priority 2015, dated 2019).

What was measured:
Cathepsin D (CatD) = Cathepsin D (CatD) (Homo sapiens (Human), UniProt P07339); assay: CatD assay; type: biochemical; settings: read-out: IC50 IP (μM) CatD
BACE2 = BACE2 (Homo sapiens (Human), UniProt Q9Y5Z0); assay: In vitro enzymatic BACE2 FRET assay; type: biochemical; settings: read-out: IC50 IP (μM) BACE2 Enzyme
Excerpt: (§1) In Vitro Enzymatic BACE1 and BACE2 FRET (Fluorescence Resonance Energy Transfer) Assays (Enzyme Assay Data in Table 1)

BACE1 [1] = biological target: T1, BACE1 (Homo sapiens (Human), UniProt P56817); assay: In vitro enzymatic BACE1 FRET assay; type: biochemical; settings: read-out: IC50 IP (μM) BACE1 Enzyme
Target sequence in this assay (P56817 46-501): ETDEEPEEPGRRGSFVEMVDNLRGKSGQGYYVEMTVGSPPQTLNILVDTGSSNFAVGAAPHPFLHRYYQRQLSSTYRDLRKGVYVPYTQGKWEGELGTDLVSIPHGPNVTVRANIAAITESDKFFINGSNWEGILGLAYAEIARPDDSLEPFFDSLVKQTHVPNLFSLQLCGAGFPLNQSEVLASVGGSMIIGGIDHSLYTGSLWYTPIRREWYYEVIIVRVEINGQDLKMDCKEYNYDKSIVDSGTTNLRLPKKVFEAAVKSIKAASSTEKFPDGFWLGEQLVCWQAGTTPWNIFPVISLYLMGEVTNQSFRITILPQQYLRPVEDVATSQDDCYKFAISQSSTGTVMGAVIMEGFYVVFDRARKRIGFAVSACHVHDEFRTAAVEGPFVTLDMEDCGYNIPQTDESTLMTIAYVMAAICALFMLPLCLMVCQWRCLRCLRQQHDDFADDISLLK
Excerpt: as §1

BACE1 [2] = biological target: T1, BACE1; assay: BACE1 cell assay; type: cell-based
Target sequence in this assay (P56817 46-501, species assumed): as the sequence (P56817 46-501) above

[3] = read-out: IC50 IP (μM) BACE1 Cell

Chain of BACE2 (Q9Y5Z0 63-518): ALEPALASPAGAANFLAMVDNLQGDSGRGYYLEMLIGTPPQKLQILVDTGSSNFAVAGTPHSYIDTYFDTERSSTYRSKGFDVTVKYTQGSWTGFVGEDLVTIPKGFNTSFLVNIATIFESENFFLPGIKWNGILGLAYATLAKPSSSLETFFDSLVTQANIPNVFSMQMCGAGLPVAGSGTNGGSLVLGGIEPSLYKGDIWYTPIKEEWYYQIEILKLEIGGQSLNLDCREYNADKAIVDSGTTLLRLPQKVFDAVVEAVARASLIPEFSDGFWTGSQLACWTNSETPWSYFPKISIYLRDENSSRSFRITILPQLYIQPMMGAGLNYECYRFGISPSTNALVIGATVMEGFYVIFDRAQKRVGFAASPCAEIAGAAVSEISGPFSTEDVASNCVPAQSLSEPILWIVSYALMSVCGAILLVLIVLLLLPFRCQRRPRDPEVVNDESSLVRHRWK
Chain of Cathepsin D (CatD) (P07339 65-412, species assumed): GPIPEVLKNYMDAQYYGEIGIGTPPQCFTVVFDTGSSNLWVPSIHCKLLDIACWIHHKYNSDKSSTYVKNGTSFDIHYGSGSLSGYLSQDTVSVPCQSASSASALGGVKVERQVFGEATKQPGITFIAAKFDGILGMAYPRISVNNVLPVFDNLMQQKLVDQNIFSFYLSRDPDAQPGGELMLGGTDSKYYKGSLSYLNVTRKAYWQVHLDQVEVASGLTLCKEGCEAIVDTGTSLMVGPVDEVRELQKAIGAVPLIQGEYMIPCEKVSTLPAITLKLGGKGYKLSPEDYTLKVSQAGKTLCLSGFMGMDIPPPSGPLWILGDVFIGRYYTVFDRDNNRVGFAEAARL

What does the source list for `C[C@]1(c2cc(/C=C(\F)c3ccc(C#N)cn3)ccc2F)N=C(N)S[C@@]2(C(=O)N3CCOC4(COC4)C3)C[C@H]21` [Example 308, 6-((Z)-2-(3-((1S,5S,6S)-3-amino-5-methyl-1-(2,5-dioxa-8-azaspiro[3.5]nonane-8-carbonyl)-2-thia-4-azabicyclo[4.1.0]hept-3-en-5-yl)-4-fluorophenyl)-1-fluorovinyl)nicotinonitrile]?
IC50 (Cathepsin D (CatD)): 296 µM; IC50 (BACE2): 0.013 µM; IC50 (BACE1 [1]): 0.0021 µM; IC50 (BACE1 [2]; [3]): 0.001 µM

Which results are given for `COC[C@]12C[C@H]1[C@@](C)(c1cc(/C=C(\F)c3cnc(OCC4CC4)cn3)ccc1F)N=C(N)S2` [Example 270]?
IC50 (Cathepsin D (CatD)): 211 µM; IC50 (BACE2): 1.22 µM; IC50 (BACE1 [1]): 0.659 µM; IC50 (BACE1 [2]; [3]): 5.12 µM

How did the IC50 (BACE2) turn out when `COC[C@]12C[C@H]1[C@@](C)(c1cc(/C=C(\F)c3cc4c(cn3)OCCO4)ccc1F)N=C(N)S2` [Example 305, (1S,5S,6S)-5-(5-((Z)-2-(2,3-dihydro-[1,4]dioxino[2,3-c]pyridin-7-yl)-2-fluorovinyl)-2-fluorophenyl)-1-(methoxymethyl)-5-methyl-2-thia-4-azabicyclo[4.1.0]hept-3-en-3-amine] was run?
Its IC50 is 0.373 µM.

What about the IC50 (BACE1 [1]) of the same molecule?
The IC50 was 1.76 µM.

What about the IC50 (BACE1 [2]; [3]) of the same molecule?
The IC50 was 0.793 µM.

With `C[C@]1(c2cc(/C=C(\F)c3ccc(C#N)cn3)ccc2F)N=C(N)S[C@@]2(C(=O)N3CCO[C@@H]4C[C@@H]43)C[C@H]21` (single isomer, unassigned) [Example 312] as the molecule, how does the IC50 (BACE2) read?
Its IC50 is 0.068 µM.

What about the IC50 (BACE1 [1]) of the same molecule?
Its IC50 is 0.0012 µM.

And the IC50 (BACE1 [2]; [3])?
The IC50 was 0.0008 µM.

Which results are given for `C[C@]1(c2cc(/C=C(\F)c3ccc(C#N)cn3)ccc2F)N=C(N)S[C@@]2(C(=O)N3CC[C@@H](O)C3)C[C@H]21` [Example 333, 6-((Z)-2-(3-((1S,5S,6S)-3-amino-1-((R)-3-hydroxypyrrolidine-1-carbonyl)-5-methyl-2-thia-4-azabicyclo[4.1.0]hept-3-en-5-yl)-4-fluorophenyl)-1-fluorovinyl)nicotinonitrile]?
IC50 (BACE2): 0.053 µM; IC50 (BACE1 [1]): 0.0008 µM; IC50 (BACE1 [2]; [3]): 0.0007 µM

How did the IC50 (BACE2) turn out when `COC(=O)[C@]12C[C@H]1[C@@](C)(c1cc(/C=C(\F)c3cnc(Cl)cn3)ccc1F)N=C(N)S2` [Example 149, (1S,5S,6S)-methyl 3-amino-5-(5-((Z)-2-(5-chloropyrazin-2-yl)-2-fluorovinyl)-2-fluorophenyl)-5-methyl-2-thia-4-azabicyclo[4.1.0]hept-3-ene-1-carboxylate] was run?
Its IC50 is 0.206 µM.

What about the IC50 (BACE1 [1]) of the same molecule?
Its IC50 is 0.0352 µM.

And the IC50 (BACE1 [2]; [3])?
Its IC50 is 0.883 µM.

With `C#Cc1cnc(/C(F)=C/c2ccc(F)c([C@@]3(C)N=C(N)S[C@@]4(C(=O)N5CCOCC5)C[C@H]43)c2)cn1` [Example 350, ((1S,5S,6S)-3-amino-5-(5-((Z)-2-(5-ethynylpyrazin-2-yl)-2-fluorovinyl)-2-fluorophenyl)-5-methyl-2-thia-4-azabicyclo[4.1.0]hept-3-en-1-yl)(morpholino)methanone] as the molecule, how does the IC50 (BACE2) read?
The IC50 was 0.046 µM.

What about the IC50 (BACE1 [1]) of the same molecule?
The IC50 was 0.004 µM.

What about the IC50 (BACE1 [2]; [3]) of the same molecule?
Its IC50 is 0.04 µM.

What does the source list for `C[C@]1(c2cc(/C=C(\F)c3cnc(C#N)cn3)ccc2F)N=C(N)S[C@@]2(C(=O)N3CC[C@H](F)C3)C[C@H]21` [Example 202, 5-((Z)-2-(3-((1S,5S,6S)-3-amino-1-((S)-3-fluoropyrrolidine-1-carbonyl)-5-methyl-2-thia-4-azabicyclo[4.1.0]hept-3-en-5-yl)-4-fluorophenyl)-1-fluorovinyl)pyrazine-2-carbonitrile]?
IC50 (BACE2): 0.04 µM; IC50 (BACE1 [1]): 0.001 µM; IC50 (BACE1 [2]; [3]): 0.001 µM

Which IC50 (BACE2) does the source give for `C#CCOc1cnc(/C(F)=C/c2ccc(F)c([C@@]3(C)N=C(N)S[C@@]4(C(=O)N5CC[C@@H](F)C5)C[C@H]43)c2)cn1` [Example 297, ((1S,5S,6S)-3-amino-5-(2-fluoro-5-((Z)-2-fluoro-2-(5-(prop-2-yn-1-yloxy)pyrazin-2-yl)vinyl)phenyl)-5-methyl-2-thia-4-azabicyclo[4.1.0]hept-3-en-1-yl)((R)-3-fluoropyrrolidin-1-yl)methanone] here?
The IC50 was 0.041 µM.

What about the IC50 (BACE1 [1]) of the same molecule?
The IC50 was 0.0009 µM.

What about the IC50 (BACE1 [2]; [3]) of the same molecule?
The IC50 was 0.0004 µM.

What does the source list for `CN(C)C(=O)[C@]12C[C@H]1[C@@](C)(c1cc(/C=C(\F)c3cnc(C#CC4CC4)cn3)ccc1F)N=C(N)S2` [Example 159, (1S,5S,6S)-3-amino-5-(5-((Z)-2-(5-(cyclopropylethynyl)pyrazin-2-yl)-2-fluorovinyl)-2-fluorophenyl)-N,N,5-trimethyl-2-thia-4-azabicyclo[4.1.0]hept-3-ene-1-carboxamide]?
IC50 (Cathepsin D (CatD)): 71.9 µM; IC50 (BACE1 [1]): 0.000856 µM; IC50 (BACE1 [2]): 0.0166 µM

Which results are given for `C[C@]1(c2cc(/C=C(\F)c3ccc(C#N)cn3)ccc2F)N=C(N)S[C@@]2(C(=O)N3CCCC3)C[C@H]21` [Example 107, 6-((Z)-2-(3-((1S,5S,6S)-3-amino-5-methyl-1-(pyrrolidine-1-carbonyl)-2-thia-4-azabicyclo[4.1.0]hept-3-en-5-yl)-4-fluorophenyl)-1-fluorovinyl)nicotinonitrile]?
IC50 (Cathepsin D (CatD)): 396 µM; IC50 (BACE1 [1]): 0.000673 µM; IC50 (BACE1 [2]; [3]): 0.00384 µM

Which results are given for `C#CCOc1cnc(/C(F)=C/c2cnc(F)c([C@@]3(C)N=C(N)S[C@@]4(C(=O)N5CCOC[C@H]5C)C[C@H]43)c2)cn1` [Example 283, ((1S,5S,6S)-3-amino-5-(2-fluoro-5-((Z)-2-fluoro-2-(5-(prop-2-yn-1-yloxy)pyrazin-2-yl)vinyl)pyridin-3-yl)-5-methyl-2-thia-4-azabicyclo[4.1.0]hept-3-en-1-yl)((R)-3-methylmorpholino)methanone]?
IC50 (BACE2): 0.375 µM; IC50 (BACE1 [1]): 0.0017 µM; IC50 (BACE1 [2]; [3]): 0.0044 µM

With `C[C@]1(c2cc(/C=C(\F)c3ccc(C#N)cn3)ccc2F)N=C(N)S[C@@]2(C(=O)N3CCO[C@H]4C[C@H]43)C[C@H]21` [Example 311, 6-((Z)-2-(3-((1S,5S,6S)-3-amino-1-((1S,6R)-2-oxa-5-azabicyclo[4.1.0]heptane-5-carbonyl)-5-methyl-2-thia-4-azabicyclo[4.1.0]hept-3-en-5-yl)-4-fluorophenyl)-1-fluorovinyl)nicotinonitrile] as the molecule, how does the IC50 (BACE2) read?
The IC50 was 0.048 µM.

And the IC50 (BACE1 [1])?
The IC50 was 0.0018 µM.

And the IC50 (BACE1 [2]; [3])?
The IC50 was 0.0015 µM.

What does the source list for `C[C@]1(c2cc(/C=C(\F)c3ccc(C#N)cn3)ccc2F)N=C(N)S[C@@]2(C(=O)N3CC[C@H](O)C3)C[C@H]21` [Example 125, 6-((Z)-2-(3-((1S,5S,6S)-3-amino-1-((S)-3-hydroxypyrrolidine-1-carbonyl)-5-methyl-2-thia-4-azabicyclo[4.1.0]hept-3-en-5-yl)-4-fluorophenyl)-1-fluorovinyl)nicotinonitrile]?
IC50 (BACE2): 0.0364 µM; IC50 (BACE1 [1]): 0.000592 µM; IC50 (BACE1 [2]; [3]): 0.000986 µM

How did the IC50 (BACE2) turn out when `C#CCOc1cnc(/C(F)=C/c2ccc(F)c([C@@]3(C)N=C(N)S[C@@]4(C(=O)N5CC[C@H](F)C5)C[C@H]43)c2)cn1` [Example 303, ((1S,5S,6S)-3-amino-5-(2-fluoro-5-((Z)-2-fluoro-2-(5-(prop-2-yn-1-yloxy)pyrazin-2-yl)vinyl)phenyl)-5-methyl-2-thia-4-azabicyclo[4.1.0]hept-3-en-1-yl)((S)-3-fluoropyrrolidin-1-yl)methanone] was run?
Its IC50 is 0.093 µM.

What about the IC50 (BACE1 [1]) of the same molecule?
The IC50 was 0.0004 µM.

And the IC50 (BACE1 [2]; [3])?
Its IC50 is 0.0005 µM.

Which results are given for `C[C@]1(c2cc(/C=C(\F)c3ccc(C#N)cn3)ccc2F)N=C(N)S[C@@]2(C(=O)N3CCCC(F)(F)C3)C[C@H]21` [Example 324, 6-((Z)-2-(3-((1S,5S,6S)-3-amino-1-(3,3-difluoropiperidine-1-carbonyl)-5-methyl-2-thia-4-azabicyclo[4.1.0]hept-3-en-5-yl)-4-fluorophenyl)-1-fluorovinyl)nicotinonitrile]?
IC50 (BACE2): 0.019 µM; IC50 (BACE1 [1]): 0.0011 µM; IC50 (BACE1 [2]; [3]): 0.0031 µM

What does the source list for `C[C@]1(c2cc(/C=C(\F)c3ccc(C#N)cn3)cnc2F)N=C(N)S[C@@]2(C(=O)N3CCC(F)(F)C3)C[C@H]21` [Example 259, 6-((Z)-2-(5-((1S,5S,6S)-3-amino-1-(3,3-difluoropyrrolidine-1-carbonyl)-5-methyl-2-thia-4-azabicyclo[4.1.0]hept-3-en-5-yl)-6-fluoropyridin-3-yl)-1-fluorovinyl)nicotinonitrile]?
IC50 (BACE2): 0.113 µM; IC50 (BACE1 [1]): 0.0095 µM; IC50 (BACE1 [2]; [3]): 0.0309 µM

What does the source list for `COC[C@]12C[C@H]1[C@@](C)(c1cc(/C=C(\F)c3ccc(Cl)cn3)ccc1F)N=C(N)S2` [Example 286, (1S,5S,6S)-5-(5-((Z)-2-(5-chloropyridin-2-yl)-2-fluorovinyl)-2-fluorophenyl)-1-(methoxymethyl)-5-methyl-2-thia-4-azabicyclo[4.1.0]hept-3-en-3-amine]?
IC50 (BACE2): 0.069 µM; IC50 (BACE1 [1]): 0.0712 µM; IC50 (BACE1 [2]; [3]): 0.346 µM

With `COC(=O)[C@]12C[C@H]1[C@@](C)(c1cc(/C=C(\F)c3cnc(OCc4ncco4)cn3)ccc1F)N=C(N)S2` [Example 150, (1S,5S,6S)-methyl 3-amino-5-(2-fluoro-5-((Z)-2-fluoro-2-(5-(oxazol-2-ylmethoxy)pyrazin-2-yl)vinyl)phenyl)-5-methyl-2-thia-4-azabicyclo[4.1.0]hept-3-ene-1-carboxylate] as the molecule, how does the IC50 (BACE2) read?
The IC50 was 2.42 µM.

And the IC50 (BACE1 [1])?
Its IC50 is 0.0535 µM.

And the IC50 (BACE1 [2]; [3])?
Its IC50 is 0.379 µM.

Which results are given for `C#CCOc1cnc(/C(F)=C/c2ccc(F)c([C@@]3(C)N=C(N)S[C@@]4(C(=O)N5CCOC[C@H]5C)C[C@H]43)c2)cn1` [Example 304, ((1S,5S,6S)-3-amino-5-(2-fluoro-5-((Z)-2-fluoro-2-(5-(prop-2-yn-1-yloxy)pyrazin-2-yl)vinyl)phenyl)-5-methyl-2-thia-4-azabicyclo[4.1.0]hept-3-en-1-yl)((R)-3-methylmorpholino)methanone]?
IC50 (BACE2): 0.29 µM; IC50 (BACE1 [1]): 0.0006 µM; IC50 (BACE1 [2]; [3]): 0.0015 µM

For `C#CCOc1cnc(/C(F)=C/c2ccc(F)c([C@@]3(C)N=C(N)S[C@@]4(C(N)=O)C[C@H]43)c2)cn1` [Example 239, (1S,5S,6S)-3-amino-5-(2-fluoro-5-((Z)-2-fluoro-2-(5-(prop-2-yn-1-yloxy)pyrazin-2-yl)vinyl)phenyl)-5-methyl-2-thia-4-azabicyclo[4.1.0]hept-3-ene-1-carboxamide], which IC50 (BACE2) is on record?
Its IC50 is 0.177 µM.

What about the IC50 (BACE1 [1]) of the same molecule?
Its IC50 is 0.0013 µM.

And the IC50 (BACE1 [2])?
The IC50 was 0.0029 µM.
